# Laboratory results from patent USRE48097E1, “Cephem compounds, their production and use” (priority 2015, dated 2020).
# Legend:
# E. cloacae 2044 = assay: MIC against E. cloacae 2044; assay type: cell-based; settings: Table 2, E. cloacae 2044, Caz S, IMP S
# Text: (§1) Without limitation, the present cephem compounds alone, or in combination with one or more β-lactamase inhibitors, may provide improved antibacterial efficacy, particularly in antibiotic-resistant bacterial strains. It is believed that the present compounds may be structurally different from known compounds and, as a result, may be more basic in nature. It is an advantage that the present compounds may extend the spectrum of effective bacterial compounds, particularly against previously-resistant bacteria (e.g. ESKAPE organisms), and/or gram negative bacteria, without significant side effects. In a preferred embodiment, the present cephem compound may comprise reference compound ceftazidime, which may be used alone, or in combination with one or more β-lactamase inhibitors, such as NXL-104. As shown, the foregoing composition was tested for minimum inhibitory concentration (MIC, μg/mL) against bacteria listed in Tables 2-3.
# S. pneumoniae 2407 = assay: MIC against S. pneumoniae 2407; assay type: cell-based; settings: Table 2, S. pneumoniae 2407, Pen S
# Text: as §1
# K. pneumoniae 2690 = assay: MIC against K. pneumoniae 2690; assay type: cell-based; settings: Table 3, K. pneumoniae 2690, KPC-2
# Method: (§2) As shown, the foregoing composition was tested for minimum inhibitory concentration (MIC, μg/mL) against bacteria listed in Tables 2-3.
# [1] = test system: S. pneumoniae ATCC 700673; assay: MIC against S. pneumoniae ATCC 700673; assay type: cell-based; settings: Table 2, S. pneumoniae ATCC 700673, Pen R
# Text: as §1
# E. coli 4098 = assay: MIC against E. coli 4098; assay type: cell-based; settings: Table 2, E. coli 4098, CTX-M-15, TEM-1
# Text: as §1
# E. cloacae 2704 = assay: MIC against E. cloacae 2704; assay type: cell-based; settings: Table 2, E. cloacae 2704, P99
# Text: as §1
# K. pneumoniae 4109 = assay: MIC against K. pneumoniae 4109; assay type: cell-based; settings: Table 2, K. pneumoniae 4109, SHV-1, SHV-12
# Text: as §1
# E. coli 2668 = assay: MIC against E. coli 2668; assay type: cell-based; settings: Table 2, E. coli 2668, OXA-48
# Text: as §1
# K. pneumoniae 4107 = assay: MIC against K. pneumoniae 4107; assay type: cell-based; settings: K. pneumoniae 4107, KPC-2, TEM-1, SHV-11
# Method: as §2
# S. pneumoniae 2493 = assay: MIC against S. pneumoniae 2493; assay type: cell-based; settings: Table 2, S. pneumoniae 2493, Pen R
# Text: as §1
# K. pneumoniae 2712 = assay: MIC against K. pneumoniae 2712; assay type: cell-based; settings: Table 3, K. pneumoniae 2712, KPC-3, VIM-1
# Method: as §2
# S. pneumoniae 2389 = assay: MIC against S. pneumoniae 2389; assay type: cell-based; settings: Table 2, S. pneumoniae 2389, Pen R
# Text: as §1
# S. aureus 3132 = assay: MIC against S. aureus 3132; assay type: cell-based; settings: Table 2, S. aureus 3132, MSSA
# Text: as §1
# K. baumanii 2579 = assay: MIC against K. baumanii 2579; assay type: cell-based; settings: Table 2, K. baumanii 2579, OXA-25
# Text: as §1
# E. cloacae 2705 = assay: MIC against E. cloacae 2705; assay type: cell-based; settings: Table 3, E. cloacae 2705, VIM-1, KPC-3type
# Method: as §2
# M. morganii 2409 = assay: MIC against M. morganii 2409; assay type: cell-based; settings: Table 2, M. morganii 2409, High level cephase, β-Lactamase producing
# Text: as §1
# C. freundii 580 = assay: MIC against C. freundii 580; assay type: cell-based; settings: Table 2, C. freundii 580, Caz R, IMP S
# Text: as §1
# P. aeruginosa 2686 = assay: MIC against P. aeruginosa 2686; assay type: cell-based; settings: Table 3, P. aeruginosa 2686, KPC-2
# Method: as §2
# K. pneumoniae 4088 = assay: MIC against K. pneumoniae 4088; assay type: cell-based; settings: Table 3, K. pneumoniae 4088, KPC-3
# Method: as §2
# S. aureus 3144 = assay: MIC against S. aureus 3144; assay type: cell-based; settings: Table 2, S. aureus 3144, MSSA
# Text: as §1
# K. pneumoniae 2689 = assay: MIC against K. pneumoniae 2689; assay type: cell-based; settings: K. pneumoniae 2689, KPC-2
# Method: as §2
# K. baumanii 4095 = assay: MIC against K. baumanii 4095; assay type: cell-based; settings: Table 2, K. baumanii 4095, OXA-48
# Text: as §1
# E. coli 4102 = assay: MIC against E. coli 4102; assay type: cell-based; settings: Table 2, E. coli 4102, CTX-M-14
# Text: as §1
# E. cloacae596 = assay: MIC against E. cloacae596; assay type: cell-based, E. cloacae; settings: Table 2, E. cloacae596, Caz R, IMP S
# Text: as §1
# [2] = Table 2, in combination with NXL-104
# [3] = Table 3, in combination with NXL-104
smiles,measurement,setting,value
"CC(C)(O/N=C(\C(=O)N[C@@H]1C(=O)N2C(C(=O)[O-])=C(C[n+]3ccccc3)CS[C@H]12)c1csc(N)n1)C(=O)O [CAZ, ceftazidime, reference compound]",MIC,E. cloacae 2044; alone,1.00 µg/mL
same,MIC,E. cloacae 2044; in combination with NXL-104,0.25 µg/mL
same,MIC,S. pneumoniae 2407; alone,4.00 µg/mL
same,MIC,S. pneumoniae 2407; in combination with NXL-104,32.00 µg/mL
same,MIC,K. pneumoniae 2690; alone,>32 µg/mL
same,MIC,K. pneumoniae 2690; in combination with NXL-104,4 µg/mL
same,MIC,[1]; alone,16.00 µg/mL
same,MIC,[1]; in combination with NXL-104,8.00 µg/mL
same,MIC,E. coli 4098; alone,2.00 µg/mL
same,MIC,E. coli 4098; in combination with NXL-104,0.50 µg/mL
same,MIC,E. cloacae 2704; alone,16.00 µg/mL
same,MIC,E. cloacae 2704; in combination with NXL-104,4.00 µg/mL
same,MIC,K. pneumoniae 4109; alone,2.00 µg/mL
same,MIC,K. pneumoniae 4109; in combination with NXL-104,0.50 µg/mL
same,MIC,E. coli 2668; alone,1.00 µg/mL
same,MIC,E. coli 2668; in combination with NXL-104,0.50 µg/mL
same,MIC,"K. pneumoniae 4107; Table 2, alone",32.00 µg/mL
same,MIC,K. pneumoniae 4107; [2],8.00 µg/mL
same,MIC,"K. pneumoniae 4107; Table 3, alone",>32 µg/mL
same,MIC,K. pneumoniae 4107; [3],4 µg/mL
same,MIC,S. pneumoniae 2493; alone,16.00 µg/mL
same,MIC,S. pneumoniae 2493; in combination with NXL-104,16.00 µg/mL
same,MIC,K. pneumoniae 2712; alone,>32 µg/mL
same,MIC,K. pneumoniae 2712; in combination with NXL-104,16 µg/mL
same,MIC,S. pneumoniae 2389; alone,16.00 µg/mL
same,MIC,S. pneumoniae 2389; in combination with NXL-104,16.00 µg/mL
same,MIC,S. aureus 3132; alone,8.00 µg/mL
same,MIC,S. aureus 3132; in combination with NXL-104,8.00 µg/mL
same,MIC,K. baumanii 2579; alone,>32 µg/mL
same,MIC,K. baumanii 2579; in combination with NXL-104,>32 µg/mL
same,MIC,E. cloacae 2705; alone,>32 µg/mL
same,MIC,E. cloacae 2705; in combination with NXL-104,>32 µg/mL
same,MIC,M. morganii 2409; alone,16.00 µg/mL
same,MIC,M. morganii 2409; in combination with NXL-104,4.00 µg/mL
same,MIC,C. freundii 580; alone,8.00 µg/mL
same,MIC,C. freundii 580; in combination with NXL-104,2.00 µg/mL
same,MIC,P. aeruginosa 2686; alone,>32 µg/mL
same,MIC,P. aeruginosa 2686; in combination with NXL-104,16 µg/mL
same,MIC,K. pneumoniae 4088; alone,>32 µg/mL
same,MIC,K. pneumoniae 4088; in combination with NXL-104,8 µg/mL
same,MIC,S. aureus 3144; alone,16.00 µg/mL
same,MIC,S. aureus 3144; in combination with NXL-104,16.00 µg/mL
same,MIC,"K. pneumoniae 2689; Table 2, alone",32.00 µg/mL
same,MIC,K. pneumoniae 2689; [2],4.00 µg/mL
same,MIC,"K. pneumoniae 2689; Table 3, alone",>32 µg/mL
same,MIC,K. pneumoniae 2689; [3],4 µg/mL
same,MIC,K. baumanii 4095; alone,0.50 µg/mL
same,MIC,K. baumanii 4095; in combination with NXL-104,0.50 µg/mL
same,MIC,E. coli 4102; alone,1.00 µg/mL
same,MIC,E. coli 4102; in combination with NXL-104,0.25 µg/mL
same,MIC,E. cloacae596; alone,4.00 µg/mL
same,MIC,E. cloacae596; in combination with NXL-104,1.00 µg/mL
